According to patent US20240002393A1, “SUBSTITUTED BENZO[f][l ,2,4JTRIAZOL0[4,3-a][l ,4J[…] GABA A GAMMA! POSITIVE ALLOSTERIC MODULATORS” (Hoffmann-La Roche Inc., priority 2020, published 2024):

Target: h-GABA-A α2β2γ1 (Homo sapiens (Human), UniProt P47869+Q8N1C3)
Test: Two-electrode voltage clamp electrophysiology in Xenopus oocytes expressing GABAA receptors
Assay type: cell-based
Details: for Efficacy (GABA)%: % modulation of GABA EC20 = 100*(Fold increase−1), compound at 30-fold Ki; for Fold increase h-GABA-A α2β2γ1 oocyte @ 30-fold Ki: GABA EC20, test compound at about 30-fold its Ki α2β2γ1, at least 3 oocytes
Method: Xenopus laevis oocytes at maturation stages V-VI were used for the expression of cloned mRNA encoding GABAA receptor subunits. Oocytes ready for RNA micro-injection were bought from Ecocyte, Castrop-Rauxel, Germany and stored in modified Barth's medium (composition in mM: NaCl 88, KCl 1, NaHCO3 2.4, HEPES 10, MgSO4 0.82, CaNO3 0.33, CaCl2 0.33, pH=7.5) at 20° C. until the experiment.
Oocytes were plated in 96-well plates for microinjection using the Roboinject automated instrument (MultiChannelSystems, Reutlingen, Germany). Approximately 50 nL of an aqueous solution containing the RNA transcripts for the subunits of the desired GABAA receptor subtype was injected into each oocyte. […] Oocytes were kept in modified Barth's medium (composition in mM: NaCl 88, KCl 1, NaHCO3 […], HEPES 10, MgSO4 0.82, CaNO3 0.33, CaCl2 0.33, pH=7.5) at 20° C. until the experiment.
Electrophysiological experiments were performed using the Roboocyte instrument (MultiChannelSystems, Reutlingen, Germany) on days 3 to 5 after the micro-injection of mRNA. During the experiment the oocytes were constantly superfused by a solution containing (in mM) NaCl 90, KCl 1, HEPES 5, MgCl2 1 CaCl2 1 (pH 7.4). Oocytes were impaled by two glass microelectrodes (resistance: 0.5-0.8 MΩ) which were filled with a solution containing KCl 1M+K-acetate 1.5 M and voltage-clamped to −80 mV. The recordings were performed at room temperature using the Roboocyte two-electrode voltage clamp system (Multichannelsystem). After an initial equilibration period of 1.5 min GABA was added for 1.5 min at a concentration evoking approximately 20% of a maximal current response (EC20). After another rest interval of 2.5 min GABA was again added evoking a response of similar amplitude and shape. […] Current traces were recorded at a digitization rate of 10 Hz during and shortly before and after the GABA application.
Each compound and concentration was tested on at least 3 oocytes. Different oocytes were used for different compound concentrations.
For the analysis, the digitized current traces of the first and second GABA response were superimposed and, if necessary, rescaled to equal maximal amplitudes. The ratio between the two responses during the time interval of test compound application was calculated point by point. The extremum of the resulting “ratio trace” was taken as the efficacy (“Fold increase”) of the compound expressed as “% modulation of GABA EC20” (100*(Fold increase−1)).

| Structure (SMILES) | Efficacy (GABA)% | Fold increase h-GABA-A α2β2γ1 oocyte @ 30-fold Ki |
| --- | --- | --- |
| C[C@@H]1N=C(c2ccccc2F)c2c(ccc(Br)c2Cl)-n2cnnc21 [Example 30, (4S)-8-bromo-7-chloro-6-(2-fluorophenyl)-4-methyl-4H-[1,2,4]triazolo[4,3-a][1,4]benzodiazepine] | 57% | 1.57 |
| OC1N=C(c2c(F)cccc2F)c2c(ccc(Br)c2Cl)-n2cnnc21 (stereo not drawn) [Example 31, 8-bromo-7-chloro-6-(2,6-difluorophenyl)-4H-[1,2,4]triazolo[4,3-a][1,4]benzodiazepin-4-ol] | 74% | 1.74 |
| C[C@@H]1N=C(c2ccccc2F)c2c(ccc(Br)c2Cl)-n2c(-c3cccnn3)nnc21 [Example 32, (4S)-8-bromo-7-chloro-6-(2-fluorophenyl)-4-methyl-1-pyridazin-3-yl-4H-[1,2,4]triazolo[4,3-a][1,4]benzodiazepine] | 105% | 2.05 |
| OC1N=C(c2ccccc2F)c2c(ccc(Br)c2Cl)-n2c(-c3cccnn3)nnc21 (stereo not drawn) [Example 35, 8-bromo-7-chloro-6-(2-fluorophenyl)-1-pyridazin-3-yl-4H-[1,2,4]triazolo[4,3-a][1,4]benzodiazepin-4-ol] | 108% | 2.08 |
| C[C@@H]1N=C(c2c(F)cccc2F)c2c(ccc(Br)c2Cl)-n2cnnc21 [Example 51, (4S)-8-bromo-7-chloro-6-(2,6-difluorophenyl)-4-methyl-4H-[1,2,4]triazolo[4,3-a][1,4]benzodiazepine] | 56% | 1.56 |
| C[C@@H]1N=C(c2c(F)cccc2F)c2c(ccc(Cl)c2Cl)-n2c(-c3ccncn3)nnc21 [Example 52, (4S)-7,8-dichloro-6-(2,6-difluorophenyl)-4-methyl-1-pyrimidin-4-yl-4H-[1,2,4]triazolo[4,3-a][1,4]benzodiazepine] | 100% | 2.00 |
| C[C@@H]1N=C(c2c(F)cccc2F)c2c(ccc(Cl)c2Cl)-n2c(-c3cnn(C)c3)nnc21 [Example 53, (4S)-7,8-dichloro-6-(2,6-difluorophenyl)-4-methyl-1-(1-methylpyrazol-4-yl)-4H-[1,2,4]triazolo[4,3-a][1,4]benzodiazepine] | 32% | 1.32 |
| C[C@@H]1N=C(c2c(F)cccc2F)c2c(ccc(Cl)c2Cl)-n2c(-c3cccnn3)nnc21 [Example 56, (4S)-7,8-dichloro-6-(2,6-difluorophenyl)-4-methyl-1-pyridazin-3-yl-4H-[1,2,4]triazolo[4,3-a][1,4]benzodiazepine] | 78% | 1.78 |
| C[C@@H]1N=C(c2ncccc2F)c2c(ccc(Cl)c2Cl)-n2c(-c3cccnn3)nnc21 [Example 63, (4S)-7,8-dichloro-6-(3-fluoro-2-pyridyl)-4-methyl-1-pyridazin-3-yl-4H-[1,2,4]triazolo[4,3-a][1,4]benzodiazepine] | 891% | 9.91 |
| C[C@@H]1N=C(c2c(F)cccc2F)c2c(ccc(Cl)c2Cl)-n2c1n[nH]c2=O [Example 64, (4S)-7,8-dichloro-6-(2,6-difluorophenyl)-4-methyl-2,4-dihydro-[1,2,4]triazolo[4,3-a][1,4]benzodiazepin-1-one] | 74% | 1.74 |
| C[C@@H]1N=C(c2ncccc2F)c2c(ccc(Cl)c2Cl)-n2c(-c3ccncn3)nnc21 [Example 66, (4S)-7,8-dichloro-6-(3-fluoro-2-pyridyl)-4-methyl-1-pyrimidin-4-yl-4H-[1,2,4]triazolo[4,3-a][1,4]benzodiazepine] | 143% | 2.43 |
| C[C@@H]1N=C(c2ncccc2F)c2c(ccc(Cl)c2Cl)-n2c(-c3cnn(C)c3)nnc21 [Example 67, (4S)-7,8-dichloro-6-(3-fluoro-2-pyridyl)-4-methyl-1-(1-methylpyrazol-4-yl)-4H-[1,2,4]triazolo[4,3-a][1,4]benzodiazepine] | 69% | 1.69 |
| C[C@@H]1N=C(c2ncccc2F)c2c(ccc(Cl)c2Cl)-n2c(C3CC3)nnc21 [Example 68, (4S)-7,8-dichloro-1-cyclopropyl-6-(3-fluoro-2-pyridyl)-4-methyl-4H-[1,2,4]triazolo[4,3-a][1,4]benzodiazepine] | 109% | 2.09 |
| C[C@@H]1N=C(c2c(F)cccc2F)c2c(ccc(Cl)c2Br)-n2c(-c3cccnn3)nnc21 [Example 73, (4S)-7-bromo-8-chloro-6-(2,6-difluorophenyl)-4-methyl-1-(pyridazin-3-yl)-4H-benzo[f][1,2,4]triazolo[4,3-a][1,4]diazepine] | 105% | 2.05 |
| C[C@@H]1N=C(c2c(F)cccc2F)c2c(ccc(Cl)c2Br)-n2c(-c3ccncn3)nnc21 [Example 74, (4S)-7-bromo-8-chloro-6-(2,6-difluorophenyl)-4-methyl-1-pyrimidin-4-yl-4H-[1,2,4]triazolo[4,3-a][1,4]benzodiazepine] | 62% | 1.62 |
| Cc1nnc2n1-c1ccc(Br)c(Cl)c1C(c1c(F)cccc1F)=N[C@H]2C [Example 75, (4S)-8-bromo-7-chloro-6-(2,6-difluorophenyl)-1,4-dimethyl-4H-[1,2,4]triazolo[4,3-a][1,4]benzodiazepine] | 57% | 1.57 |
| C[C@@H]1N=C(c2c(F)cccc2F)c2c(ccc(Cl)c2Br)-n2c(-c3cnn(C)c3)nnc21 [Example 76, (4S)-7-bromo-8-chloro-6-(2,6-difluorophenyl)-4-methyl-1-(1-methylpyrazol-4-yl)-4H-[1,2,4]triazolo[4,3-a][1,4]benzodiazepine] | 52% | 1.52 |
| Cc1nnc2n1-c1ccc(Cl)c(Br)c1C(c1c(F)cccc1F)=N[C@H]2C [Example 80, (4S)-7-bromo-8-chloro-6-(2,6-difluorophenyl)-1,4-dimethyl-4H-[1,2,4]triazolo[4,3-a][1,4]benzodiazepine] | 59% | 1.59 |
| C[C@@H]1N=C(c2c(F)cccc2F)c2c(ccc(Cl)c2Br)-n2c(-c3ccn(C)n3)nnc21 [Example 81, (4S)-7-bromo-8-chloro-6-(2,6-difluorophenyl)-4-methyl-1-(1-methylpyrazol-3-yl)-4H-[1,2,4]triazolo[4,3-a][1,4]benzodiazepine] | 46% | 1.46 |
| Cc1nnc2n1-c1ccc(Cl)c(Cl)c1C(c1c(F)cccc1F)=N[C@H]2C [Example 82, (4S)-7,8-dichloro-6-(2,6-difluorophenyl)-1,4-dimethyl-4H-[1,2,4]triazolo[4,3-a][1,4]benzodiazepine] | 45% | 1.45 |
| C[C@@H]1N=C(c2ncccc2F)c2c(ccc(Br)c2Cl)-n2c(C3CC3)nnc21 [Example 83, (4S)-8-bromo-7-chloro-1-cyclopropyl-6-(3-fluoro-2-pyridyl)-4-methyl-4H-[1,2,4]triazolo[4,3-a][1,4]benzodiazepine] | 102% | 2.02 |
| C[C@@H]1N=C(c2ncccc2F)c2c(ccc(Br)c2Cl)-n2cnnc21 [Example 84, (4S)-8-bromo-7-chloro-6-(3-fluoro-2-pyridyl)-4-methyl-4H-[1,2,4]triazolo[4,3-a][1,4]benzodiazepine] | 203% | 3.03 |
| Cc1nnc2n1-c1ccc(Br)c(Cl)c1C(c1ncccc1F)=N[C@H]2C [Example 85, (4S)-8-bromo-7-chloro-6-(3-fluoro-2-pyridyl)-1,4-dimethyl-4H-[1,2,4]triazolo[4,3-a][1,4]benzodiazepine] | 114% | 2.14 |
| Cc1ccc(-c2nnc3n2-c2ccc(Cl)c(Cl)c2C(c2c(F)cccc2F)=N[C@H]3C)nn1 [Example 86, (4S)-7,8-dichloro-6-(2,6-difluorophenyl)-4-methyl-1-(6-methylpyridazin-3-yl)-4H-[1,2,4]triazolo[4,3-a][1,4]benzodiazepine] | 80% | 1.80 |
